Measurements as given in article PMC11604048, “Constrained TACC3 peptidomimetics for a non-canonical protein–protein interface elucidate allosteric communication in Aurora-A kinase” (Chemical Science, 2024).
Blank lines part the entries; values can stand above or below the molecule they belong to. *1 amine or outer side, *2 acyl side, *3 side chain or, on linkers, in order; H or OH if unused. Where a SMILES comes first, the peptide text is derived from it. Bridges are numbered along the chain shown (N, C = ends). [ ]: non-standard residue; d: D form. Biphenyl(4,4'-CH2)2 = c1cc(-c2ccc(C[*:2])cc2)ccc1C[*:1]; Pro(trans-4-F) = O=C(O)[C@@H]1C[C@@H](F)CN1; Phe(4-I) = N[C@@H](Cc1ccc(I)cc1)C(=O)O

Tests used:
[1] = target: T1, Aurora-A122-403-C290A/C393A (Homo sapiens, UniProt O14965, C290A/C393A); assay: Competition FA assay against FAM-Ahx-TACC3 522-536 tracer; assay type: binding; settings: SD; read-out: IC50
T1 construct: Human Aurora-A kinase domain 122-403 wild-type or C290A/ C393A mutant; His tag (pET30TEV vector) (N, cleaved yes); made in house; host or cells: E. coli RIL, co-expressed with lambda phosphatase (Aurora-A); tracer by solid phase synthesis
T1 sequence (O14965 122-403 C290A/C393A): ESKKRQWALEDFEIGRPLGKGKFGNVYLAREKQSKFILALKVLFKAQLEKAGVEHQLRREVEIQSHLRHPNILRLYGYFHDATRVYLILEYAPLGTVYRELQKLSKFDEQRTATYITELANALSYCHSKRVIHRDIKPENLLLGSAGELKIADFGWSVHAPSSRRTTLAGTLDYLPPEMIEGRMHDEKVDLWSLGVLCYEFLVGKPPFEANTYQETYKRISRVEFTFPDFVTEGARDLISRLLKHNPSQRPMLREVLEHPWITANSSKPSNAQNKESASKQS

[2] = target: T1, Aurora-A122-403-C290A/C393A; assay: Isothermal titration calorimetry (ITC); assay type: binding; settings: for -TΔS° / Kd / N (stoichiometry) / ΔG° / ΔH°: ITC as E13
Description: Isothermal titration calorimetry (ITC). ITC experiments were carried out using a MicroCal PEAQ-ITC system (Malvern Panalytical) at 25 °C. A stock solution of Aurora-A 122-403-290A/C393A was dialyzed into ITC buffer overnight (25 mM Tris buffer, pH= 7.5; 150 mM NaCl; 5 mM MgCl2; 5 % v/v glycerol), and the same buffer was employed to resuspend a solid portion of the testing peptides. For each experiment, initially, the cell was filled with 275 µl of Aurora-A122-403-290A/C393A (46 μM) and the syringe was loaded with the corresponding peptide at 1.25 mM concentration. An initial injection of 0.5 μL was then followed by 13 injections of 3 μL, every 150 s, with a constant syringe rotation speed of 750 rpm throughout. The signal for the enthalpy of dilution of each peptide into buffer was independently measured in a control titration experiment and then subtracted from the experimental binding traces. The Kd, ΔG°, ΔH° and -TΔS° values were determined via the MicroCal PEAQ-ITC analysis software (Malvern Paranalytical) using a single-site binding model. […]

[3] = Peptide enzymatic degradation assay, α-chymotrypsin; assay type: in vitro ADME, bovine; settings: α-chymotrypsin (bovine pancreas), peptide 100 µM, peptide/enzyme molar ratio [P]/[E]= 25, HEPES 25 mM, pH 7.5, 25 °C, 6 hours; RP-HPLC peak area, exponential decay fit; three independent experiments, mean ± SD; SD; read-out: t1/2 in the presence of α-chymotrypsin
Description: (§1) into individual aliquots at -20 °C. […]
(§2) a concentration of 1 mg mL−1 concentration. The digestion samples were immediately prepared by mixing […]
(§3) were then incubated at 25 °C for 6 hours. […]
(§4) thermo-shaker for 6 hours. […]
(§5) presence of enzyme (t=0). […]
(§6) r = r଴ + A x e భ Eq. (SI - 10)
(§7) τ = tଵ ln(2) Eq. (SI - 11)
(§8) In all cases, control samples were […]
(§9) replicates and error bars indicating the corresponding SD. […]

[4] = target: T2, α-chymotrypsin (bovine pancreas) (Bos taurus, UniProt P00766); assay: as above; assay type: in vitro ADME; settings: as E58; for stability to α-chymotrypsin (in words): compared with WT sequence
T2 construct: purchased Sigma; host or cells: bovine pancreas
Description: as §1, §2, §3, §4, §5, §6, §7, §8, §9

Trypsin [5] = assay: Peptide enzymatic degradation assay, trypsin; settings: as E60, compared with WT TACC3 518-532
[6] = target: T3, Aurora-A122-403-C290A/C393A (N-Myc/Aurora-A interaction) (Homo sapiens, UniProt O14965, C290A/C393A); assay: FA competition assay against FAM-Ahx-N-Myc61-89; assay type: binding; settings: SD; read-out: IC50 (N-Myc displacement)
T3 construct: Human Aurora-A kinase domain 122-403 wild-type or C290A/ C393A mutant; His tag (pET30TEV vector) (N, cleaved yes); made in house; host or cells: E. coli RIL, co-expressed with lambda phosphatase (Aurora-A)
T3 sequence (O14965 122-403 C290A/C393A): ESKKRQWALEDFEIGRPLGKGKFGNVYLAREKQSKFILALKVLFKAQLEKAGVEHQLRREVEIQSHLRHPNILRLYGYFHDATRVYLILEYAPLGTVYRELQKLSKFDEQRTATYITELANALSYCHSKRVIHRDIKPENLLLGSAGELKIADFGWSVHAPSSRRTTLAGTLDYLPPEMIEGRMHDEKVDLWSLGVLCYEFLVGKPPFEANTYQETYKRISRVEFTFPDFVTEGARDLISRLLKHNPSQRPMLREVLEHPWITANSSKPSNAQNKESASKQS
Description: (1 picture or pasted object on this page, not shown here)
FA competition assays were performed using the same plates and buffer as described above, with the initial […]
14 points in a 1/2 regime. […]
after 4 h of incubation to enable appropriate sample equilibration. To prevent sample oxidation, when sulfhydryl peptides were analyzed DTT was added to the buffer (5 mM). In competition mode, the average anisotropy and the average standard deviation of the values derived from equation SI-6 were calculated […]
When using peptides for which full
For consistency, all the data […]
indicating the corresponding SD.
Molecular dynamics (MD) analyses: All peptide–protein complexes were subjected to duplicate MD simulations using YASARA structure.13 Starting from the reported x-ray crystal structure of one molecule of […]
modifications were introduced by direct replacement of the relevant atoms within the structure. When needed, biphenyl constraints were modeled in YASARA by swapping the pertinent amino acids for cysteines and connecting them to biphenyl- fragments. […]
crystal structure), and then minimised structures were generated using the energy minimization function with default settings. The modelled complexes were subjected to MD simulations using YASARA structure macro for fast MD run (www.yasara.org/md_runfast.mcr).14 Briefly, the AMBER14 forcefield was used and […]

Trypsin [7] = settings: pH 7.5
Aurora-A 122-403 [8] = target: T4, Aurora-A 122-403 (Homo sapiens, UniProt O14965); assay: fluorescence anisotropy competition against TPX2
T4 chain: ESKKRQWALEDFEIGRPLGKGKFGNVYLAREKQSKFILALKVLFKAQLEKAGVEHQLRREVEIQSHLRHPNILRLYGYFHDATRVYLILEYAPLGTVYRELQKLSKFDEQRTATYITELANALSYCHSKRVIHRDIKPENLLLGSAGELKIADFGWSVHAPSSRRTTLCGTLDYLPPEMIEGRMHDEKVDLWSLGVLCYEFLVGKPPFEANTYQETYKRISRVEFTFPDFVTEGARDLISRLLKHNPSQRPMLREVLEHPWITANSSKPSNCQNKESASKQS

Aurora-A 122-403 [9] = target: T4, Aurora-A 122-403; assay: fluorescence anisotropy competition against N-Myc
[10] = N unrestrained fit, single titration

IC50 [1]: 12 ± 1 µM
-TΔS° [2, 10]: -4.47 kcal/mol
Kd [2, 10]: 16.7 µM
N (stoichiometry) [2, 10]: 1.62
ΔG° [2, 10]: -6.52 kcal/mol
ΔH° [2, 10]: -2.06 kcal/mol
half-life at 100 µM [3]: 26 ± 2 min
stability to α-chymotrypsin (in words) [4]: not protected
stability to trypsin (in words) (Trypsin [5]): only partially improved stability
stability to trypsin (in words) (Trypsin [5]; listed as S/E constrained variant): not protected
Molecule: CC(=O)N[C@@H](CC(C)C)C(=O)N[C@@H](CCC(=O)O)C(=O)N[C@@H](CC(C)C)C(=O)N[C@@H](CCCCN)C(=O)N[C@@H](CCC(=O)O)C(=O)N[C@@H](CCC(=O)O)C(=O)N[C@H]1CSCc2ccc(cc2)-c2ccc(cc2)CSC[C@@H](C(=O)N[C@H](C(=O)N[C@@H](CC(C)C)C(N)=O)C(C)C)NC(=O)[C@H](C)NC(=O)[C@@H]2C[C@@H](F)CN2C(=O)[C@H](CC(=O)O)NC(=O)[C@H](CCCNC(=N)N)NC(=O)[C@H](Cc2ccc(I)cc2)NC1=O [TACC3 518-532-S/E-Bph-IF/fP] (Ac-LELKEEC[Phe(4-I)]RD[Pro(trans-4-F)]ACVL-NH2; linker 7-13 via Biphenyl(4,4'-CH2)2)

IC50 [1]: 17 ± 1 µM
-TΔS° ([2]; N restrained fit, Run 1): -5.5 kcal/mol
Kd ([2]; N restrained fit, Run 1): 5.6 µM
ΔG° ([2]; N restrained fit, Run 1): -7.17 kcal/mol
ΔH° ([2]; N restrained fit, Run 1): -1.65 kcal/mol
-TΔS° ([2]; N restrained fit, Run 2): -5.33 kcal/mol
Kd ([2]; N restrained fit, Run 2): 5.9 µM
ΔG° ([2]; N restrained fit, Run 2): -7.15 kcal/mol
ΔH° ([2]; N restrained fit, Run 2): -1.79 kcal/mol
-TΔS° ([2]; N unrestrained fit, Run 1): -5.71 kcal/mol
Kd ([2]; N unrestrained fit, Run 1): 4.6 µM
N (stoichiometry) ([2]; N unrestrained fit, Run 1): 1.06
ΔG° ([2]; N unrestrained fit, Run 1): -7.29 kcal/mol
ΔH° ([2]; N unrestrained fit, Run 1): -1.55 kcal/mol
-TΔS° ([2]; N unrestrained fit, Run 2): -5.43 kcal/mol
Kd ([2]; N unrestrained fit, Run 2): 5.5 µM
N (stoichiometry) ([2]; N unrestrained fit, Run 2): 1.02
ΔG° ([2]; N unrestrained fit, Run 2): -7.17 kcal/mol
ΔH° ([2]; N unrestrained fit, Run 2): -1.74 kcal/mol
-TΔS ([2]; ITC as E40, average of two independent titrations): -5.43 kcal/mol
time resistant to chymotrypsin with no cleavage by-products detected ([4]; HPLC and LC/MS analysis): ~ 6 hr
stability to α-chymotrypsin (in words) [4]: increased resistance
IC50 [6]: 28.3 ± 1.2 µM
t1/2 in the presence of trypsin (Trypsin [7]): ≥ 330 min
stability to trypsin (in words) (Trypsin [5]): increased resistance
Molecule: CC(=O)N[C@@H](CC(C)C)C(=O)N[C@@H](CCC(=O)O)C(=O)N[C@H]1CSCc2ccc(cc2)-c2ccc(cc2)CSC[C@@H](C(=O)N[C@@H](CC(=O)O)C(=O)N2C[C@H](F)C[C@H]2C(=O)N[C@@H](C)C(=O)N[C@@H](CCC(=O)O)C(=O)N[C@H](C(=O)N[C@@H](CC(C)C)C(N)=O)C(C)C)NC(=O)[C@H](Cc2ccc(I)cc2)NC(=O)[C@H](CO)NC(=O)[C@H](CCC(=O)O)NC(=O)[C@H](CCC(=O)O)NC(=O)[C@H](CCCCN)NC1=O [TACC3 518-532-L/R-Bph-IF/fP] (Ac-LECKEES[Phe(4-I)]CD[Pro(trans-4-F)]AEVL-NH2; linker 3-9 via Biphenyl(4,4'-CH2)2)

IC50 (Aurora-A 122-403 [8]): > 200 µM
IC50 (Aurora-A 122-403 [9]): 28 µM
B1: TACC3 L/R-Bph-I/fP 518-532 (peptide)
chain: LELKEESFRDPAEVL
modifications: not fully specified; L520C/R526C biphenyl constraint, (4-I)Phe525, trans-(4-F)Pro528; Aurora-A C290A+C393A
